Source: patent US20100047360A1, “Use Of Polyamines In The Treatment Of Psoriasis” (Bioforskining Pharma AS, priority 2006, published 2010)

System: psoriasis
Experiment: Clinical study, efficacy of topical cream in psoriasis patients
Type: in vivo, human
Conditions: patient; previously used antipsoriasis drugs
Text: The patient started to use a cream according to Example 1 two to four times daily. […] The patient stopped using the spermine cream after about six months.
A patient with psoriasis (knees, elbows and scalp) started to use a cream according to Example 1 daily.
A patient with psoriasis (scalp, auditory canal, hands, elbows, partly in the face and body (psoriasis grade medium on 15% of the body)).

Compound: CN(Cc1cnc2nc(N)nc(N)c2n1)c1ccc(C(=O)N[C@@H](CCC(=O)O)C(=O)O)cc1 [methotrexate]
- effectiveness of previous treatment: only effective treatment
